ChEMBL document CHEMBL3232786, “Therapeutic utility of cannabinoid receptor type 2 (CB(2)) selective agonists” (J Med Chem, 2013)

Legend:
Cannabinoid receptor 2 [1] = biological target: Cannabinoid receptor 2 (Mus musculus, UniProt P47936); assay: Displacement of [3H]-CP55940 from mouse CB2 receptor by liquid scintillation counting
Cannabinoid receptor 2 [2] = biological target: T1, Cannabinoid receptor 2 (Rattus norvegicus, UniProt Q9QZN9); assay: Displacement of [3H]-CP55940 from rat CB2 receptor expressed in CHO-K1 cells by liquid scintillation spectrophotometry; assay type: cell-based
T1 sequence (Q9QZN9 whole entry): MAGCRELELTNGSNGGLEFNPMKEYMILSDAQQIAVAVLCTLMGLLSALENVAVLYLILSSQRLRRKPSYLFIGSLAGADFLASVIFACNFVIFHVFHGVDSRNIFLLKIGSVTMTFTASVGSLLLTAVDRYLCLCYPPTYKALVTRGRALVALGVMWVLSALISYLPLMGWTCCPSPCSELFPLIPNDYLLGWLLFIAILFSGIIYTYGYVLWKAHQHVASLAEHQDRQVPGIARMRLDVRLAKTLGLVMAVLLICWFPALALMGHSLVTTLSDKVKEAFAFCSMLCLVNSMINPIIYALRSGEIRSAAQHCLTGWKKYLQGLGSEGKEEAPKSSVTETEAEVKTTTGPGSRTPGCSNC

Homo sapiens [3] = organism: Homo sapiens; assay: Selectivity ratio of Ki for human CB1 receptor to Ki for human CB2 receptor
Cannabinoid receptor 2 [4] = biological target: T2, Cannabinoid receptor 2 (Homo sapiens, UniProt P34972); assay: Displacement of [3H]-CP55940 from human CB2 receptor expressed in CHO-K1 cells by liquid scintillation counting; assay type: cell-based
[5] = Displacement of [3H]-CP55940 from cynomolgus monkey CB2 receptor by liquid scintillation counting; parameters: species or system Macaca fascicularis
Cannabinoid receptor 1 [6] = biological target: T3, Cannabinoid receptor 1 (Homo sapiens, UniProt P21554); assay: Displacement of [3H]-CP55940 from human CB1 receptor expressed in CHO-K1 cells by liquid scintillation counting; assay type: cell-based
Cannabinoid receptor 1 [7] = biological target: T3, Cannabinoid receptor 1; assay: Displacement of [3H]-CP55940 from human CB1 receptor by liquid scintillation counting in presence of serine protease inhibitor PMSF
Cannabinoid receptor 1 [8] = biological target: T3, Cannabinoid receptor 1; assay: Agonist activity at human CB1 receptor expressed in CHO-K1 cells assessed as inhibition of forskolin-induced cAMP accumulation by TR-FRET assay; assay type: functional, cell-based
Cannabinoid receptor 2 [9] = biological target: T2, Cannabinoid receptor 2; assay: Agonist activity at human CB2 receptor expressed in CHO-K1 cells assessed as inhibition of forskolin-induced cAMP accumulation by TR-FRET assay; assay type: functional, cell-based
Cannabinoid receptor 2 [10] = biological target: T1, Cannabinoid receptor 2; assay: Agonist activity at rat CB2 receptor expressed in CHO-K1 cells assessed as inhibition of forskolin-induced cAMP accumulation; assay type: functional, cell-based
[11] = Clearance in rat; assay type: ADME, organism-based; conditions: in vivo
Cannabinoid receptor 2 [12] = biological target: T1, Cannabinoid receptor 2; assay: Binding affinity to rat CB2 receptor
Cannabinoid receptor 1 [13] = biological target: T3, Cannabinoid receptor 1; assay: Agonist activity at human CB1 receptor assessed as inhibition of forskolin-induced cAMP production preincubated for 15 mins followed by forskolin challenge measured after 30 mins by HTRF assay; assay type: functional
Cannabinoid receptor 2 [14] = biological target: T2, Cannabinoid receptor 2; assay: Agonist activity at human CB2 receptor assessed as inhibition of forskolin-induced cAMP production preincubated for 15 mins followed by forskolin challenge measured after 30 mins by HTRF assay; assay type: functional
Rattus norvegicus [15] = assay: Attenuation of chronic constriction injury in po dosed rat; assay type: functional
Rattus norvegicus [16] = organism: Rattus norvegicus; assay: Selectivity ratio of Ki for rat CB1 receptor to Ki for rat CB2 receptor
Rattus norvegicus [17] = organism: Rattus norvegicus; assay: Antiinflammatory activity in rat assessed as reduction of FCA-induced pain; assay type: functional
[18] = Oral bioavailability in rat; assay type: ADME, organism-based; conditions: in vivo
[19] = Half life in rat; assay type: ADME, organism-based; conditions: in vivo
Cannabinoid receptor 1 [20] = biological target: T3, Cannabinoid receptor 1; assay: Agonist activity at human CB1 receptor assessed as inhibition of forskolin-induced cAMP production; assay type: functional
Cannabinoid receptor 2 [21] = biological target: T2, Cannabinoid receptor 2; assay: Agonist activity at human CB2 receptor assessed as inhibition of forskolin-induced cAMP production; assay type: functional
Cannabinoid receptor 2 [22] = biological target: T1, Cannabinoid receptor 2; assay: Displacement of [3H]-CP55940 from CB2 receptor of rat spleen membranes by liquid scintillation counting in presence of serine protease inhibitor PMSF; assay type: tissue-based, Membrane
Cannabinoid receptor 1 [23] = biological target: T4, Cannabinoid receptor 1 (Rattus norvegicus, UniProt P20272); assay: Displacement of [3H]-CP55940 from CB1 receptor of rat cerebellar membranes by liquid scintillation counting in presence of serine protease inhibitor PMSF; parameters: species or system Cerebellum, Membrane
Rattus norvegicus [24] = organism: Rattus norvegicus; assay: Selectivity ratio of Ki for CB2 receptor of rat spleen membranes to Ki for CB1 receptor of rat cerebellar membranes; assay type: tissue-based
Rattus norvegicus [25] = assay: Antinociceptive activity in ip dosed skin incision rat model assessed as tactile allodynia administered 90 mins before skin incision measured after 30 mins; assay type: functional
Rattus norvegicus [26] = organism: Rattus norvegicus; assay: Antiinflammatory activity in rat chronic constriction injury model of neuropathic pain; assay type: functional
Rattus norvegicus [27] = organism: Rattus norvegicus; assay: Antiinflammatory activity in complete Freund's adjuvant-induced-rat; assay type: functional
Rattus norvegicus [28] = organism: Rattus norvegicus; assay: Antiinflammatory activity in rat capsaicin-induced thermal hyperalgesia measured by paw withdrawal latency; assay type: functional
Cannabinoid receptor 1 [29] = biological target: T3, Cannabinoid receptor 1; assay: Agonist activity at CB1 receptor (unknown origin)
Homo sapiens [30] = organism: Homo sapiens; assay: Selectivity ratio of Ki for CB1 human receptor to Ki for human CB2 receptor
Cannabinoid receptor 2 [31] = biological target: T2, Cannabinoid receptor 2; assay: Displacement of [3H]-CP55940 from human CB2 receptor expressed in CHO cells by liquid scintillation counting; assay type: cell-based
Cannabinoid receptor 1 [32] = biological target: T3, Cannabinoid receptor 1; assay: Displacement of [3H]-CP55940 from human CB1 receptor by liquid scintillation counting
Cannabinoid receptor 1 [33] = biological target: T3, Cannabinoid receptor 1; assay: Agonist activity at human CB1 receptor transfected in CHO-K1 cells assessed as cAMP change; assay type: functional, cell-based
Cannabinoid receptor 2 [34] = biological target: T2, Cannabinoid receptor 2; assay: Agonist activity at human CB2 receptor transfected in CHO-K1 cells assessed as cAMP change; assay type: functional, cell-based
Homo sapiens [35] = organism: Homo sapiens; assay: Selectivity index, ratio of EC50 for human CB1 receptor to EC50 for human CB2 receptor
Cannabinoid receptor 2 [36] = biological target: T1, Cannabinoid receptor 2; assay: Inverse agonist activity at rat CB2 receptor expressed in CHO-K1 cells assessed as inhibition of forskolin-induced cAMP accumulation; assay type: functional, cell-based
Cannabinoid receptor 2 [37] = biological target: T2, Cannabinoid receptor 2; assay: Displacement of [3H]-CP55940 from human CB2 receptor expressed in HEK cells by liquid scintillation counting; assay type: cell-based, HEK293
Cannabinoid receptor 1 [38] = biological target: T4, Cannabinoid receptor 1; assay: Displacement of [3H]-CP55940 from CB1 receptor of rat brain
[39] = biological target: Transient receptor potential cation channel subfamily V member 1 (Homo sapiens, UniProt Q8NER1); assay: Activation of human VR1 expressed in HEK293 cells assessed as stimulation of Ca2+ influx; assay type: cell-based
Cannabinoid receptor 2 [40] = biological target: T2, Cannabinoid receptor 2; assay: Displacement of [3H]-CP55940 from human CB2 receptor expressed in HEK293 cells after 90 mins by liquid scintillation counting; assay type: cell-based
Cannabinoid receptor 1 [41] = biological target: T3, Cannabinoid receptor 1; assay: Displacement of [3H]-CP55940 from human CB1 receptor expressed in HEK293 cells after 90 mins by liquid scintillation counting; assay type: cell-based

T3 sequence (P21554 whole entry): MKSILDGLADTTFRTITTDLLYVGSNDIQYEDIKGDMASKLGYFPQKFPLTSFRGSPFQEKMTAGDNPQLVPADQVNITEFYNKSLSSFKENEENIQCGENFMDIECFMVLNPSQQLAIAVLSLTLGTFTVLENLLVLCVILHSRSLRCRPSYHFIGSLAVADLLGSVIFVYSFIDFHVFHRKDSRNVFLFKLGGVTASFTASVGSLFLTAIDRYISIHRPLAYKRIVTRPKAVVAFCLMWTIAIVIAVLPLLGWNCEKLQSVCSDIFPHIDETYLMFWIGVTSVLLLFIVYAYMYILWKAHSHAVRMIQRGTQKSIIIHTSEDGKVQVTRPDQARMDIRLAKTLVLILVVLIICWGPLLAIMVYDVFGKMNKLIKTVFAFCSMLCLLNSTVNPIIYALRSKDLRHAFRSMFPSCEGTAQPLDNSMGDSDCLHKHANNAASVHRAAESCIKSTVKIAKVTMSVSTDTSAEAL
T2 sequence (P34972 whole entry): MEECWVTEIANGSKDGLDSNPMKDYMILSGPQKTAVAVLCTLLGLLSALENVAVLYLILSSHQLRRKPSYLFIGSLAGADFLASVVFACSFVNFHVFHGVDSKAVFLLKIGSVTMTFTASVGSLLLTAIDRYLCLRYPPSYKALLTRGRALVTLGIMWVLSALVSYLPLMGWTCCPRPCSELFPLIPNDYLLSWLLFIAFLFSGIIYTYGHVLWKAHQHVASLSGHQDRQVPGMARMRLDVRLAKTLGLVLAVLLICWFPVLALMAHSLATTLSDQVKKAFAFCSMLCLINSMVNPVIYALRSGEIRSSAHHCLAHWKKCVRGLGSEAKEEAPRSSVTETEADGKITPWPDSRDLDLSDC
T4 sequence (P20272 whole entry): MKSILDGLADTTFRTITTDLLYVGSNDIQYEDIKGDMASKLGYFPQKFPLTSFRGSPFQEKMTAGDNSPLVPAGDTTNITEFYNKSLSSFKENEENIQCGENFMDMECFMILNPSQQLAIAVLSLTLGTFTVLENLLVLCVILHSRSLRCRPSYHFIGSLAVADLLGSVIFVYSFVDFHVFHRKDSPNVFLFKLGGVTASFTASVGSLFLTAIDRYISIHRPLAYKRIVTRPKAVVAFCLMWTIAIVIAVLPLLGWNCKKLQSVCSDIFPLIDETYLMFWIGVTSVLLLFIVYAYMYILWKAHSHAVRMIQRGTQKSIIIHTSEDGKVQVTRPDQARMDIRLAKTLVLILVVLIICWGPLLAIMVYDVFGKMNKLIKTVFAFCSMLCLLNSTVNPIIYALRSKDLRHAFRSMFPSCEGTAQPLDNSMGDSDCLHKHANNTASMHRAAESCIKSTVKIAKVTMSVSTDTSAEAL
Chain of Cannabinoid receptor 2 (Mus musculus, UniProt P47936) (P47936 whole entry): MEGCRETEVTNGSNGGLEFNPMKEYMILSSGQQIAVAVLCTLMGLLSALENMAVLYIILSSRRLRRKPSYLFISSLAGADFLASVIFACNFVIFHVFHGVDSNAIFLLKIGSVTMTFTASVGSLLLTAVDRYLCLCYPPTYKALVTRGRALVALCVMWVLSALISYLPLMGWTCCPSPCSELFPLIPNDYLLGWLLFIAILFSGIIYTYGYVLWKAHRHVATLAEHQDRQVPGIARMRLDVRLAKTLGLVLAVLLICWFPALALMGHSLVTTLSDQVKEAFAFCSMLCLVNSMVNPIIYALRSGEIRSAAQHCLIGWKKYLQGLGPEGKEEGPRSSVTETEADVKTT
Chain of Transient receptor potential cation channel subfamily V member 1 (Q8NER1 whole entry): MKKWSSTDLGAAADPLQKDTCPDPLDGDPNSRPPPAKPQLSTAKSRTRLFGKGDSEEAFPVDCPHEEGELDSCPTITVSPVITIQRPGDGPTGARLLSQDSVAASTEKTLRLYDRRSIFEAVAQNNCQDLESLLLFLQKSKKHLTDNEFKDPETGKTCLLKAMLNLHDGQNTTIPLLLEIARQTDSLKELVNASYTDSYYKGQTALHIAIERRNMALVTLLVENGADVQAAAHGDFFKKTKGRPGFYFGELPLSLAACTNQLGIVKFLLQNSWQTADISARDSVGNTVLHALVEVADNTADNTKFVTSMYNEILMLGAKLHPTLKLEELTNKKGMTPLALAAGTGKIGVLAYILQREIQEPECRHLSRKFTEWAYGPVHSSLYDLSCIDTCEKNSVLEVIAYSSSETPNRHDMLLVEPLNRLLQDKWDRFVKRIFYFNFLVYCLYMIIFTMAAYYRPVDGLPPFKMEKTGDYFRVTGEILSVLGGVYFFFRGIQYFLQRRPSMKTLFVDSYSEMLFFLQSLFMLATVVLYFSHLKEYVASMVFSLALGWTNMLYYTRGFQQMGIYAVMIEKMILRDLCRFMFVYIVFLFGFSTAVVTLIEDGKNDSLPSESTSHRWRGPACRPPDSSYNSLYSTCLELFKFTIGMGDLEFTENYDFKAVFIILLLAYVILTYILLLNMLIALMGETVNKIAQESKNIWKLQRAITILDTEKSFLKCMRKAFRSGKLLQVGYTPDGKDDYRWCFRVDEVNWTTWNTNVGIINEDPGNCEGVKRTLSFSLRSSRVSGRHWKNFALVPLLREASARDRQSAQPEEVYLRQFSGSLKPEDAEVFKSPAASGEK

Compound: Cc1c2n(c(=O)c3cc(OC(=O)C(C)(C)C)cc(OC(=O)C(C)(C)C)c13)CCCC2
- Ki (Cannabinoid receptor 2 [1]): 4.8 nM
- Ki (Cannabinoid receptor 2 [2]): 2.4 nM
- Ratio Ki (Homo sapiens [3]): 450
- Ki (Cannabinoid receptor 2 [4]): 6.8 nM
- Ki [5]: 5.4 nM
- Ki (Cannabinoid receptor 1 [6]): 2630 nM

Compound: CCCCC/C=C\C/C=C\C/C=C\C/C=C\CCCC(=O)OCCN
- Ki (Cannabinoid receptor 1 [7]): 912 nM

Compound: O=C(NC1CCCC1)c1ccc2c(c1)N(S(=O)(=O)c1ccc(F)cc1)CCS2
- EC50 (Cannabinoid receptor 1 [8]): 10 nM
- EC50 (Cannabinoid receptor 2 [9]): 1 nM

Compound: CS(=O)(=O)N1CCc2c(cc(-c3cccc(Cl)c3)c(=O)n2CC2CCC2)C1
- EC50 (Cannabinoid receptor 1 [8]): > 10000 nM
- EC50 (Cannabinoid receptor 2 [9]): < 100 nM

Compound: CN1CCCC[C@H]1Cn1cc(C(=O)c2cc([N+](=O)[O-])ccc2I)c2ccccc21
- EC50 (Cannabinoid receptor 2 [10]): 785 nM

Compound: Cn1c(C2(C)CC2)c/c(=N\C(=O)c2cc(C(F)(F)F)ccc2OCC(C)(C)O)n1C[C@H]1CCCO1
- clearance [11]: 30 mL/min/kg
- Ratio Ki (Homo sapiens [3]): > 57000
- EC50 (Cannabinoid receptor 2 [4]): 0.47 nM
- IC50 (Cannabinoid receptor 1 [6]; read-out: EC50 (the source's name)): > 27000 nM

Compound: CC(C)(C)NC(=O)c1nn(-c2ccc(F)cc2F)c2c1[C@H]1CC[C@@H]2C1 [TEDALINAB]
- Ki (Cannabinoid receptor 2 [12]): 12 nM
- EC50 (Cannabinoid receptor 1 [13]): 854 nM
- EC50 (Cannabinoid receptor 2 [14]): 0.61 nM
- Ratio Ki (Homo sapiens [3]): 80
- ED50 (Rattus norvegicus [15]): 2.15 mg/kg
- Ratio Ki (Rattus norvegicus [16]): 20
- ED50 (Rattus norvegicus [17]): 1.67 mg/kg
- bioavailability [18]: 48%
- half-life [19]: 5.78 h

Compound: O=C(NC12CC3CC(CC(C3)C1)C2)c1nn(-c2ccc(Cl)c(Cl)c2)c2c1CCCC2
- EC50 (Cannabinoid receptor 1 [20]): 37 nM
- EC50 (Cannabinoid receptor 2 [21]): 2.5 nM

Compound: CCCCC/C=C\C/C=C\C/C=C\C/C=C\CCCC(=O)NC1CC1
- Ki (Cannabinoid receptor 2 [22]): 715 nM
- Ki (Cannabinoid receptor 1 [23]): 2.2 nM
- Ratio Ki (Rattus norvegicus [24]): 325

Compound: COCCn1c(C)c(C)s/c1=N\C(=O)C1C(C)(C)C1(C)C
- ED50 (Rattus norvegicus [25]): 12 µmol/kg
- ED50 (Rattus norvegicus [26]): 12.9 µmol/kg
- ED50 (Rattus norvegicus [27]): 1.96 µmol/kg
- ED50 (Rattus norvegicus [28]): 10.4 µmol/kg

Compound: CCc1c(C)cc(C(=O)NC2(C(=O)O)CCCCC2)c(=O)n1Cc1ccc(F)cc1 [S-777469]
- Ki (Cannabinoid receptor 1 [29]): 4600 nM

Compound: CCCCCCC(C)(C)c1cc(OC)c([C@]2(O)CCC[C@@H](C)C2)c(OC)c1
- Ratio Ki (Homo sapiens [30]): 220
- Ki (Cannabinoid receptor 2 [31]): 23.1 nM
- Ki (Cannabinoid receptor 1 [32]): 5060 nM

Compound: CCC(C)Cn1c(C(C)(C)C)nc2cc(S(=O)(=O)c3ccnc(F)c3)ccc21 (stereo not drawn)
- EC50 (Cannabinoid receptor 1 [33]): > 10000 nM
- EC50 (Cannabinoid receptor 2 [34]): 0.26 nM
- Ratio EC50 (Homo sapiens [35]): > 38000

Compound: CN1CCCCC1Cn1cc(C(=O)c2cc([N+](=O)[O-])ccc2I)c2ccccc21 (racemic)
- EC50 (Cannabinoid receptor 2 [36]): 216 nM
- Ki (Cannabinoid receptor 2 [37]): 7.1 nM
- Ki (Cannabinoid receptor 1 [38]): 280 nM
- Ki (Cannabinoid receptor 1 [32]): 580 nM

Compound: CCCCC/C=C\C/C=C\C/C=C\C/C=C\CCCC(=O)NCCO [ANANDAMIDE]
- EC50 [39]: 630 nM

Compound: CCNC(=O)c1c(NC(=O)C23CC4CC(CC(C4)C2)C3)sc2c1CCOC2
- EC50 (Cannabinoid receptor 2 [40]): 21 nM
- EC50 (Cannabinoid receptor 1 [41]): > 1.5 nM
